Values of other authors, collected in US6815463B2, “Laulimalide derivatives” (Kosan Biosciences, Inc., priority 2001, dated 2004).

Test system: microtubules
Conditions: for stabilization of microtubules: similar to paclitaxel, Mooberry et al. 1999, WO 01/54689

Structure (SMILES)	stabilization of microtubules	potency as stabilizer of microtubule polymerization relative to laulimalide (comparison with laulimalide)
C=C1C[C@H](C)C[C@@H]2CC=C[C@@H](C/C=C\C(=O)O[C@H]([C@@H](O)/C=C/[C@@H]3CC(C)=CCO3)C[C@@H]3O[C@H]3[C@@H](O)C1)O2 [laulimalide, Laulimalide]	potent stabilizers of microtubules	
C=C1C[C@H](C)C[C@@H]2CC=C[C@@H](C/C=C\C(=O)O[C@H]3C[C@@H](O[C@H]3/C=C/[C@@H]3CC(C)=CCO3)[C@@H](O)[C@@H](O)C1)O2 [isolaulimalide]	potent stabilizers of microtubules	less potent stabilizer of microtubule polymerization than laulimalide
